In brackets after ≈: the same amount, converted by molar mass.
What was measured:
Enterococcus faecalis = assay: Antibacterial activity against gentamicin-resistant Enterococcus faecalis clinical isolate after 18 hrs by agar dilution method; assay type: functional
[1] = tested on: Acinetobacter calcoaceticus; assay: Antibacterial activity against non-gentamicin-resistant Acinetobacter calcoaceticus clinical isolate after 18 hrs by agar dilution method; assay type: functional
Serratia marcescens = assay: Antibacterial activity against non-gentamicin-resistant Serratia marcescens clinical isolate after 18 hrs by agar dilution method; assay type: functional
Enterobacter cloacae = assay: Antibacterial activity against gentamicin-resistant Enterobacter cloacae clinical isolate assessed as susceptible isolates after 18 hrs by agar dilution method; assay type: functional
[2] = tested on: Acinetobacter calcoaceticus; assay: Antibacterial activity against non-gentamicin-resistant Acinetobacter calcoaceticus clinical isolate assessed as susceptible isolates after 18 hrs by agar dilution method; assay type: functional
Pseudomonas aeruginosa [3] = assay: Antibacterial activity against gentamicin-resistant Pseudomonas aeruginosa clinical isolate after 18 hrs by agar dilution method; assay type: functional
Proteus mirabilis [4] = assay: Antibacterial activity against non-gentamicin-resistant Proteus mirabilis clinical isolate assessed as susceptible isolates after 18 hrs by agar dilution method; assay type: functional
Escherichia coli = assay: Antibacterial activity against non-gentamicin-resistant Escherichia coli clinical isolate after 18 hrs by agar dilution method; assay type: functional
Pseudomonas aeruginosa [5] = assay: Antibacterial activity against gentamicin-resistant Pseudomonas aeruginosa clinical isolate assessed as susceptible isolates after 18 hrs by agar dilution method; assay type: functional
Proteus mirabilis [6] = assay: Antibacterial activity against non-gentamicin-resistant Proteus mirabilis clinical isolate after 18 hrs by agar dilution method; assay type: functional
Staphylococcus aureus = assay: Antibacterial activity against gentamicin-resistant Staphylococcus aureus clinical isolate assessed as susceptible isolates after 18 hrs by agar dilution method; assay type: functional
Klebsiella pneumoniae = assay: Antibacterial activity against non-gentamicin-resistant Klebsiella pneumoniae clinical isolate assessed as susceptible isolates after 18 hrs by agar dilution method; assay type: functional
[7] = tested on: Staphylococcus epidermidis; assay: Antibacterial activity against gentamicin-resistant Staphylococcus epidermidis clinical isolate after 18 hrs by agar dilution method; assay type: functional
Providencia rettgeri = assay: Antibacterial activity against non-gentamicin-resistant Proteus rettgeri clinical isolate after 18 hrs by agar dilution method; assay type: functional
[8] = tested on: Haemophilus parainfluenzae; assay: Antibacterial activity against non-gentamicin-resistant Haemophilus parainfluenzae clinical isolate after 18 hrs by agar dilution method; assay type: functional
Pseudomonas sp. [9] = assay: Antibacterial activity against non-gentamicin-resistant Pseudomonas spp. clinical isolate after 18 hrs by agar dilution method; assay type: functional
Citrobacter freundii = assay: Antibacterial activity against gentamicin-resistant Citrobacter freundii clinical isolate after 18 hrs by agar dilution method; assay type: functional
Pseudomonas sp. [10] = assay: Antibacterial activity against non-gentamicin-resistant Pseudomonas spp. clinical isolate assessed as susceptible isolates after 18 hrs by agar dilution method; assay type: functional
[11] = tested on: Acinetobacter calcoaceticus; assay: Antibacterial activity against gentamicin-resistant Acinetobacter calcoaceticus clinical isolate after 18 hrs by agar dilution method; assay type: functional
Proteus mirabilis [12] = assay: Antibacterial activity against gentamicin-resistant Proteus mirabilis clinical isolate assessed as susceptible isolates after 18 hrs by agar dilution method; assay type: functional
[13] = tested on: Escherichia coli BL21(DE3); assay: Phosphorylation activity of AAC(6')-APH(2'') in Escherichia coli BL21(DE3) assessed as oxidation of NADH by pyruvate kinase relative to verdamicin
[14] = tested on: Escherichia coli BL21(DE3); assay: Phosphorylation activity of AAC(6')-APH(2'') in Escherichia coli BL21(DE3) assessed as oxidation of NADH by pyruvate kinase
[15] = tested on: Escherichia coli BL21(DE3); assay: Ratio of Vmax to Km for AAC(6')-APH(2'') in Escherichia coli BL21(DE3) assessed as oxidation of NADH by pyruvate kinase relative to netilmicin

NCC[C@H](O)C(=O)N[C@@H]1C[C@H](N)[C@@H](O[C@H]2O[C@H](CN)[C@@H](O)[C@H](O)[C@H]2O)[C@H](O)[C@H]1O[C@H]1O[C@H](CO)[C@@H](O)[C@H](N)[C@H]1O [AMIKACIN]
MIC50 (Enterococcus faecalis): 128 mg/L (≈ 219 µM) | MIC90 (Enterococcus faecalis): > 128 mg/L | MIC50 [1]: 0.5 mg/L (≈ 0.854 µM) | MIC90 [1]: 2 mg/L (≈ 3.42 µM) | MIC50 (Serratia marcescens): 1 mg/L (≈ 1.71 µM) | MIC90 (Serratia marcescens): 2 mg/L (≈ 3.42 µM) | Activity (Enterobacter cloacae): 63.2% | Activity [2]: 98% | MIC50 (Pseudomonas aeruginosa [3]): 8 mg/L (≈ 13.7 µM) | MIC90 (Pseudomonas aeruginosa [3]): 32 mg/L (≈ 54.6 µM) | Activity (Proteus mirabilis [4]): 100% | MIC50 (Escherichia coli): 1 mg/L (≈ 1.71 µM) | MIC90 (Escherichia coli): 2 mg/L (≈ 3.42 µM) | Activity (Pseudomonas aeruginosa [5]): 85.3% | MIC50 (Proteus mirabilis [6]): 2 mg/L (≈ 3.42 µM) | MIC90 (Proteus mirabilis [6]): 4 mg/L (≈ 6.83 µM) | Activity (Staphylococcus aureus): 80.6% | Activity (Klebsiella pneumoniae): 100% | MIC50 [7]: 4 mg/L (≈ 6.83 µM) | MIC90 [7]: 64 mg/L (≈ 109 µM) | MIC50 (Providencia rettgeri): 2 mg/L (≈ 3.42 µM) | MIC90 (Providencia rettgeri): 32 mg/L (≈ 54.6 µM) | MIC50 [8]: 4 mg/L (≈ 6.83 µM) | MIC90 [8]: 8 mg/L (≈ 13.7 µM) | MIC50 (Pseudomonas sp. [9]): 4 mg/L (≈ 6.83 µM) | MIC90 (Pseudomonas sp. [9]): 16 mg/L (≈ 27.3 µM) | MIC50 (Citrobacter freundii): 2 mg/L (≈ 3.42 µM) | MIC90 (Citrobacter freundii): 32 mg/L (≈ 54.6 µM) | Activity (Pseudomonas sp. [10]): 90.9% | MIC50 [11]: 16 mg/L (≈ 27.3 µM) | MIC90 [11]: > 128 mg/L | Activity (Proteus mirabilis [12]): 63.6%

CCN[C@@H]1C[C@H](N)[C@@H](O[C@H]2OC(CN)=CC[C@H]2N)[C@H](O)[C@H]1O[C@H]1OC[C@](C)(O)[C@H](NC)[C@H]1O [NETILMICIN]
MIC50 (Enterococcus faecalis): 4 mg/L (≈ 8.41 µM) | MIC90 (Enterococcus faecalis): > 128 mg/L | MIC50 [1]: 1 mg/L (≈ 2.1 µM) | MIC90 [1]: 16 mg/L (≈ 33.6 µM) | Vmax [13]: 55% | MIC50 (Serratia marcescens): 1 mg/L (≈ 2.1 µM) | MIC90 (Serratia marcescens): 4 mg/L (≈ 8.41 µM) | Activity (Enterobacter cloacae): 5.3% | Activity [2]: 87.8% | MIC50 (Pseudomonas aeruginosa [3]): > 128 mg/L | MIC90 (Pseudomonas aeruginosa [3]): > 128 mg/L | Activity (Proteus mirabilis [4]): 98.4% | MIC50 (Escherichia coli): 0.5 mg/L (≈ 1.05 µM) | MIC90 (Escherichia coli): 0.5 mg/L (≈ 1.05 µM) | Activity (Pseudomonas aeruginosa [5]): 2.9% | MIC50 (Proteus mirabilis [6]): 1 mg/L (≈ 2.1 µM) | MIC90 (Proteus mirabilis [6]): 2 mg/L (≈ 4.21 µM) | Activity (Staphylococcus aureus): 47.2% | Activity (Klebsiella pneumoniae): 94% | MIC50 [7]: 2 mg/L (≈ 4.21 µM) | MIC90 [7]: 32 mg/L (≈ 67.3 µM) | Km [14]: 308 µM | MIC50 (Providencia rettgeri): 2 mg/L (≈ 4.21 µM) | MIC90 (Providencia rettgeri): 8 mg/L (≈ 16.8 µM) | MIC50 [8]: 1 mg/L (≈ 2.1 µM) | MIC90 [8]: 2 mg/L (≈ 4.21 µM) | MIC50 (Pseudomonas sp. [9]): 8 mg/L (≈ 16.8 µM) | MIC90 (Pseudomonas sp. [9]): 32 mg/L (≈ 67.3 µM) | MIC50 (Citrobacter freundii): 8 mg/L (≈ 16.8 µM) | MIC90 (Citrobacter freundii): > 128 mg/L | Activity (Pseudomonas sp. [10]): 72.7% | Vmax/Km [15]: 7.4% | MIC50 [11]: 128 mg/L (≈ 269 µM) | MIC90 [11]: > 128 mg/L | Activity (Proteus mirabilis [12]): 36.4%

— ChEMBL document CHEMBL1275533, “In vitro antibacterial activity of vertilmicin and its susceptibility to modifications by the recombinant AAC6'-APH2'' enzyme” (2008)
